Data on 2 compounds can be found in US8455226B2, “Method for producing metal nanoparticles” (Janssen Pharmaceutica N.V., priority 2006, dated 2013).

For one assay, the system named is Escherichia coli. Put plainly: Antimicrobial activity on a solid growth medium for Escherichia coli (Example 4). The format is cell-based. Conditions: 24 hours at 30° C., plated 2×10^6 CFU/mL. As to the method:
100 mL of a silver suspension with an Ag concentration of 5 mM, in the form of nanosilver deposited on Lactobacillus fermentum biomass as obtained in example 1, was plated onto a solidified growth medium for culturing Escherichia coli (Luria Bertani Agar). As a control, 100 mL of a solution of 5 mM AgNO3 in sterile milliQ water with 0.1 N NaOH were plated on the same growth medium. This setting agreed with a total amount of 0.05 mg Ag per agar plate, or 11 mg Ag per m^2 of total surface area. This experiment was repeated with twofold the latter concentrations, i.e. with 0.11 mg Ag per agar plate or 22 mg Ag per m^2 of total surface area.
By plating these silver suspensions, a homogeneous layer of Ag(I)NO3, or nano-Ag respectively, was applied onto the solidified growth media.
After pre-treating the solidified growth medium in this way, 100 μL of a 2×10^6 CFU/mL Escherichia coli suspension in physiological solution (8.5 g NaCl/L in sterile water) was plated on the pre-treated agar plates. The plates were then incubated during 24 hours at 30° C. and colonies were counted. The count results are illustrated by FIG. 1. At nano-Ag concentrations of 11 mg Ag/m^2 and 22 mg Ag/m^2, no viable cells of E. coli could be detected on the treated solid growth medium (<detection limit (D.L.)=1×10^1 CFU/ml). […]

A further assay concerns some bacteria. Conditions: cited from earlier work.

Structures are written as SMILES.

Turning to `O=[N+]([O-])[O-].[Ag+]` [Ag(I)NO3, AgNO3], the “viable cells of E. coli on treated solid growth medium” value in the assay with Escherichia coli (11 mg Ag/m^2) is recorded as 4×10^2 CFU/ml; in the assay with Escherichia coli (22 mg Ag/m^2), 1×10^2 CFU/ml.

As to `OO` [Hydrogen peroxide], the “concentration known to inhibit the growth of some bacteria” value in the assay on some bacteria is 25 mg/L.
